Results taken from the NIST ThermoML archive (doi:10.1016/j.tca.2016.08.006).
Where “and” joins values, the source holds several entries; their conditions need not be identical. Equal values may be shown once.

Assays:
[1] = molar heat capacity at constant pressure; details: 101.33 kPa, Crystal, Vacuum adiabatic calorimetry
[2] = 101.33 kPa, Crystal, Vacuum adiabatic calorimetry

[S-2].[Zn+2] [zinc sulfide]
Details	molar entropy, [2] [J/K/mol]	molar heat capacity at constant pressure, [1]
1 K	3.1e-05	0.000119 J/K/mol
2 K	0.00031	0.000958 J/K/mol
4 K	0.002561	0.007765 J/K/mol
6 K	0.00879	0.02685 J/K/mol
8 K	0.0213	0.06618 J/K/mol
10 K	0.043	0.1376 J/K/mol
12 K	0.078	0.2601 J/K/mol
13.23 K	–	0.1984 J/K/mol
14 K	0.1317	0.4569 J/K/mol
16 K	0.2106	0.7475 J/K/mol
16.01 K	–	0.5445 J/K/mol
17.97 K	–	1.025 J/K/mol
18 K	0.3203	1.14 J/K/mol
19.61 K	–	1.553 J/K/mol
20 K	0.4649	1.628 J/K/mol
21.54 K	–	2.093 J/K/mol
23.46 K	–	2.68 J/K/mol
25 K	0.987	3.17 J/K/mol
25.99 K	–	3.508 J/K/mol
28.89 K	–	4.52 J/K/mol
30 K	1.72	4.941 J/K/mol
31.66 K	–	5.487 J/K/mol
34.78 K	–	6.6 J/K/mol
35 K	2.617	6.734 J/K/mol
37.93 K	–	7.702 J/K/mol
40 K	3.629	8.454 J/K/mol
41.05 K	–	8.761 J/K/mol
44.22 K	–	9.788 J/K/mol
45 K	4.72	10.08 J/K/mol
47.06 K	–	10.71 J/K/mol
50 K	5.863	11.63 J/K/mol
51.43 K	–	12.16 J/K/mol
53.49 K	–	12.83 J/K/mol
55 K	7.041	13.11 J/K/mol
55.51 K	–	13.31 J/K/mol
57.5 K	–	14 J/K/mol
59.41 K	–	14.51 J/K/mol
60 K	8.244	14.56 J/K/mol
61.72 K	–	15.17 J/K/mol
64.45 K	–	15.93 J/K/mol
65 K	9.466	15.99 J/K/mol
67.18 K	–	16.76 J/K/mol
69.7 K	–	17.39 J/K/mol
70 K	10.7	17.39 J/K/mol
72.52 K	–	18.2 J/K/mol
75 K	11.95	18.77 J/K/mol
75.26 K	–	18.97 J/K/mol
77.99 K	–	19.74 J/K/mol
80 K	13.2	20.13 J/K/mol
80.73 K	–	20.47 J/K/mol
83.59 K	–	21.24 J/K/mol
85 K	14.47	21.46 J/K/mol
86.48 K	–	22.17 J/K/mol
90 K	15.73	22.77 J/K/mol
91.62 K	–	23.27 J/K/mol
95 K	16.99	24.03 J/K/mol
95.13 K	–	24.19 J/K/mol
98.85 K	–	25.12 J/K/mol
100 K	18.26	25.25 J/K/mol
102.42 K	–	26.14 J/K/mol
106.06 K	–	26.79 J/K/mol
109.93 K	–	27.68 J/K/mol
110 K	20.77	27.55 J/K/mol
113.87 K	–	28.52 J/K/mol
117.79 K	–	29.35 J/K/mol
120 K	23.26	29.66 J/K/mol
121.86 K	–	30.17 J/K/mol
125.61 K	–	30.87 J/K/mol
129.43 K	–	31.59 J/K/mol
130 K	25.71	31.58 J/K/mol
133.29 K	–	32.28 J/K/mol
137.15 K	–	32.9 J/K/mol
140 K	28.12	33.3 J/K/mol
141.04 K	–	33.52 J/K/mol
144.93 K	–	34.17 J/K/mol
149.88 K	–	35.06 J/K/mol
150 K	30.47	34.85 J/K/mol
155.67 K	–	35.74 J/K/mol
159.17 K	–	36.12 J/K/mol
160 K	32.76	36.24 J/K/mol
164 K	–	36.77 J/K/mol
168.93 K	–	37.35 J/K/mol
170 K	35	37.49 J/K/mol
173.91 K	–	37.96 J/K/mol
178.77 K	–	38.48 J/K/mol
180 K	37.17	38.6 J/K/mol
184.05 K	–	38.9 J/K/mol
189.4 K	–	39.43 J/K/mol
190 K	39.29	39.6 J/K/mol
194.4 K	–	39.95 J/K/mol
199.39 K	–	40.39 J/K/mol
200 K	41.34	40.5 J/K/mol
204.53 K	–	40.77 J/K/mol
209.77 K	–	41.2 J/K/mol
210 K	43.34	41.32 J/K/mol
214.65 K	–	41.55 J/K/mol
219.66 K	–	41.93 J/K/mol
220 K	45.28	42.05 J/K/mol
224.69 K	–	42.27 J/K/mol
230 K	47.16	42.62 J/K/mol and 42.72 J/K/mol
235.27 K	–	42.91 J/K/mol
240 K	48.99	43.32 J/K/mol
240.27 K	–	43.24 J/K/mol
245.33 K	–	43.69 J/K/mol
250 K	50.77	43.88 J/K/mol
250.45 K	–	43.78 J/K/mol
258.21 K	–	44.25 J/K/mol
260 K	52.5	44.38 J/K/mol
263.65 K	–	44.4 J/K/mol
269.02 K	–	44.71 J/K/mol
270 K	54.19	44.84 J/K/mol
274.56 K	–	44.99 J/K/mol
280 K	55.83	45.27 J/K/mol
280.13 K	–	45.24 J/K/mol
285.72 K	–	45.48 J/K/mol
290 K	57.42	45.66 J/K/mol
291.19 K	–	45.73 J/K/mol
297.09 K	–	45.7 J/K/mol
300 K	58.98	46.03 J/K/mol
304.72 K	–	46.14 J/K/mol
310 K	60.49	46.36 J/K/mol
312.85 K	–	46.5 J/K/mol
320 K	61.97	46.68 J/K/mol
